The text below walks through data of a melting point compilation (Tetko et al.).

For the data set the following is noted: a range is the spread between reports.
Regarding `Cc1cc(C)c(C)c(Br)c1C`, the melting point was 56 to 60 °C.

The compound `O=Cc1ccc(O)cc1O` returned a melting point of 135 to 136 °C.

In turn, `CC1=NS(=O)(=O)c2cc(Cl)ccc2N1` came in with a melting point of 327 to 330 °C. With `Cc1cccc([N+](=O)[O-])c1`, the melting point was in the range of 15.5 to 16 °C. The compound `Cc1cc2ccccc2cn1` came in with a melting point of 63 to 68 °C.

Compound `CCOCC` came in with a melting point of -116 °C. The compound `COc1ccc(NC(=O)N(C)C)cc1Cl` returned a melting point of 126 to 127 °C. `CN(C)C(=O)Nc1cccc(C(F)(F)F)c1` returned a melting point of 164 °C. With `NC(=O)c1cccc(N)c1`, the melting point fell in the range of 113 to 116 °C. Next, `CC(=O)N[C@@H](CS)C(=O)O`: 110 °C. `O=C1C=CC(=O)O1`: the melting point lay in the range of 52.8 to 54 °C. As to `O=C(O)C(F)(F)F`, the melting point is -15.2 to -15 °C.

`COc1cc(C=CCO)ccc1O` came in with a melting point of 74 to 76 °C. Regarding `CC1(O)CCCC1`, the melting point lay within 36 to 37 °C. In turn, `Cc1cc(C=O)c(C)n1-c1ccccc1` registered a melting point of 88.5 to 89 °C. Consider `C=Cc1ccc(C(=O)O)cc1`, for which the melting point was in the range of 142 to 144 °C. Consider `c1ccsc1`, for which the melting point was -39.4 to -38 °C.

In turn, `CCCCCCCCCCCC(=O)O` showed a melting point of 43.2 to 45 °C. For the compound `CC(=O)OCCc1ccccc1`, the melting point is -31.1 to -31 °C. `COC(=O)c1ccc(I)cc1` had a melting point of 115 °C. The compound `Clc1nc(Cl)c(Cl)c(Cl)c1Cl` gave a melting point of 125 to 126 °C.

In turn, `Brc1cc(Br)c(Br)s1` had a melting point of 27 to 29 °C.

On to `c1cc2c3c(c1)ccc1cccc(c13)C2`, for which the melting point was in the range of 114 to 116 °C. The compound `Cc1ccc(C)c(C)c1C` came in with a melting point of -6.2 to -6 °C.

Regarding `CC(=O)Nc1cccc(C)c1`, the melting point was 65 to 65.5 °C. `Cc1cc(N)c2ccccc2n1`: the melting point was 164 to 169 °C. In turn, `NC(=O)C(Cl)Cl` returned a melting point of 99 to 99.4 °C. Next, `Cc1ccc2c(c1[N+](=O)[O-])C(=O)c1ccccc1C2=O`: 268 to 270 °C; `Nc1cc(C(=O)O)ccc1Cl`: 214 to 216 °C.

`Cc1cc(Br)ccc1Br` yielded a melting point of 5 to 6 °C. Compound `COc1ccc(CCCC(=O)O)cc1` came in with a melting point of 57.5 to 59 °C. Then `N#Cc1c[nH]c2ccccc12`, with 180 °C; and `Oc1ccc(O)c(-c2ccccc2)c1`, with 101 to 102 °C; and `CCOC(=O)CNc1ccccc1`, with 57 to 58 °C. `NNC(=O)c1ccc(Br)cc1` yielded a melting point of 166 to 168 °C. In the case of `CCCCC=O`, the melting point is -92 to -91 °C. Take `Cc1ccccc1C(C)C`: the melting point was -72 to -71.5 °C. Turning to `CC(=O)Nc1ccc2c(c1)Cc1ccccc1-2`, the melting point lay within 193 to 194 °C. Turning to `CCC(=O)CC`, the melting point was -40 to -39 °C. Then `Oc1ccc(Br)cc1Br`, with 37 to 40 °C; and `c1ccc(C(=C(c2ccccc2)c2ccccc2)c2ccccc2)cc1`, with 224 to 225 °C; and `CC1(C)NC(=O)NC1=O`, with 176 to 178 °C. For `O=C(Cl)c1ccccc1F`, the melting point lay in the range of 4 to 5 °C. `O=C1CCCCN1` showed a melting point of 37 to 39.5 °C. The compound `O=C1CC(c2ccc(O)cc2)Oc2cc(O)cc(O)c21` (centres undefined) had a melting point of 250 to 251 °C. Turning to `CC(C)C=O`, the melting point was -65.9 to -65 °C. In the case of `CCCCC`, the melting point is -130 °C. The compound `Cc1ccc(N=C=S)cc1` showed a melting point of 25 to 25.5 °C. Then `CCC(O)(CC)CC`, with -13 to -12.5 °C.

As to `Cc1ccc([N+](=O)[O-])c(C)c1`, the melting point lay within 6 to 9 °C. Compound `N#Cc1ccc(N)cc1` gave a melting point of 84 to 85 °C. Then `CCCc1cc(O)nc(S)n1`, with 219 to 220 °C; and `Cc1ccc(O)c(C)c1`, with 22 to 27 °C; and `Oc1cccc(O)c1O`, with 132 to 134 °C. Next, `CC(C)c1ccc(O)cc1`: 60 to 62.3 °C; `CN(C)C(=O)Nc1ccc(Cl)cc1`: 170 to 174 °C. Next, `Cc1ccc(CCl)cc1`: 4 to 5 °C; `CC(C)c1ccc(Cl)cc1`: -12.3 to -12 °C.

With `CCOc1ccc2ccccc2c1C=O`, the melting point fell in the range of 112 to 115 °C. Then `CC(C)(C)CC(C)(C)C`, with -67 to -66.5 °C. In turn, `O=C(O)c1cc(Cl)ccc1[N+](=O)[O-]` returned a melting point of 138 to 139 °C. As to `Oc1ccccn1`, the melting point fell in the range of 107 to 108 °C. `O=C(O)c1ccc([N+](=O)[O-])cc1[N+](=O)[O-]` had a melting point of 181 to 182 °C. Then `CCCCCCCCCCCCCCCCCCS`, with 30 to 32 °C. Then `Nc1ccccc1C(F)(F)F`, with -34 to -29 °C; and `O=C(O)c1cccc([N+](=O)[O-])c1`, with 141 to 142 °C; and `OCCN(CCO)CCO`, with 19.5 to 20.5 °C. Consider `Oc1cc(Cl)c(Cl)cc1Cl`, for which the melting point is 65.5 to 69 °C. As for `CCOC(=O)c1ccc(OC)cc1`, the melting point was 7 to 8 °C. `Cc1cccc(N)c1C` displayed a melting point of 2 to 3 °C. Next, `CC1(C)OC(=O)NC1=O`: 76.5 to 79 °C; `NC1CCCC1`: -85.7 to -82.7 °C.

`CN1C(=O)OC(C)(C)C1=O`: the melting point lay in the range of 46 to 47 °C. `C/C=C\CCC` gave a melting point of -141 °C. In the case of `C1CC[C@H]2CCCC[C@H]2C1`, the melting point was -43 to -42.9 °C.

`CCCCCOC(=O)CCC` displayed a melting point of -73.2 to -73 °C. The compound `CCCCCCC(=O)Cl` registered a melting point of -84 to -83.8 °C.

As for `C[N+](=O)[O-]`, the melting point is -29 to -28.5 °C. Compound `O=C(O)C=Cc1cccc(Br)c1` yielded a melting point of 177 to 180 °C. In turn, `N#CCc1ccc(N)cc1` gave a melting point of 44 to 46 °C. `O=C(CBr)c1ccccc1` returned a melting point of 49 to 50.5 °C.

Turning to `CCn1cc(C(=O)O)c(=O)c2ccc(C)nc21`, the melting point lay in the range of 229 to 230 °C.

For `CC(C)(C)C(C)(C)C`, the melting point came out at 101 °C.

In turn, `C=C1CCC2CC1C2(C)C` (centres undefined) came in with a melting point of -61.5 to -61 °C.

As to `O=CC=Cc1ccco1`, the melting point lay within 51 to 54 °C. Consider `COc1cccc(OC)c1C(C)=O`, for which the melting point was in the range of 69 to 70 °C. For the compound `C1CCCCCCCCCCCCCC1`, the melting point is 61.3 to 62 °C. `O=S1(=O)CCCC1` showed a melting point of 27 to 27.6 °C.

Consider `O=[N+]([O-])c1cc(Cl)ccc1Cl`, for which the melting point is 55 to 56 °C. Then `CC1(C)C(=O)N(Cl)C(=O)N1Cl`, with 132 to 135 °C; and `CC(C)CCCC(C)C1CCC2C3CC=C4CC(O)CCC4(C)C3CCC12C` (centres undefined), with 148 to 149 °C; and `C1=Cc2ccccc2C1`, with -2 to -1.8 °C. Next, `CCCCCCCCCCCCCCCCCCCCCCCCC`: 53 to 54 °C. The compound `O=C1CNC(=O)N1` had a melting point of 220 to 222 °C. In turn, `CCOC(N)=O` came in with a melting point of 48 to 49 °C. Then `O=C(O)c1c(Cl)cccc1Cl`, with 143 to 144 °C. As for `O=C(O)Cc1ccccc1O`, the melting point was 146 to 149 °C. `CC(=O)Nc1ccc(C(=O)O)cc1` gave a melting point of 256 to 260 °C.

`NC(=O)c1ccccc1[N+](=O)[O-]`: the melting point is 176 to 177 °C.

`OCc1ccccc1I` had a melting point of 91 to 92 °C.

In the case of `Oc1cccc(Nc2ccccc2)c1`, the melting point lay in the range of 80 to 81.5 °C. `O=[N+]([O-])c1ccc(N=C=S)cc1` gave a melting point of 108 to 111 °C. Compound `c1ccc(COc2ccccc2)cc1` returned a melting point of 39 to 40 °C.

`COC(=O)c1ccc(OC)cc1`: the melting point was 49 to 50 °C. Next, `Oc1c(Br)cc(Br)c2cccnc12`: 196 to 201 °C. In turn, `CC(C)(N)CO` returned a melting point of 25.5 to 30 °C. For `O=[N+]([O-])c1ccc2c(c1)Cc1ccccc1-2`, the melting point lay within 156 to 157 °C. The compound `O=C(O)COc1ccc(Cl)cc1Cl` yielded a melting point of 138 to 140 °C. With `CCCCCCCCCCC(=O)O`, the melting point fell in the range of 28 to 28.6 °C. The compound `NNC=O` had a melting point of 55 to 57 °C. In the case of `Oc1cccc(C(F)(F)F)c1`, the melting point was -2 to -1.8 °C. Turning to `COc1cc(OC)c(C=O)c(OC)c1`, the melting point was in the range of 120 to 121 °C. As to `CC(=O)Nc1ccccc1C`, the melting point lay in the range of 110 to 111 °C. Then `Cc1cc(C)c(Br)c(C)c1`, with -1 to 2 °C. In turn, `O=C(O)c1cc([N+](=O)[O-])ccc1O` had a melting point of 230 to 232 °C. `Cc1cc(Cl)ccc1OC(C)C(=O)O` (centres undefined) came in with a melting point of 94 to 95 °C. `O=C1CCCCCCCCCCCCCCO1`: the melting point was in the range of 32 to 35 °C. Compound `CC(N)=S` registered a melting point of 112 to 116 °C.

Take `CC(=O)C(C)(C)C`: the melting point is -53 to -52 °C. In turn, `CCCCCCCCCCCCCCO` came in with a melting point of 39 to 40 °C. On to `CC(=O)c1ccc(OCC(=O)O)cc1`, for which the melting point was 173 to 176 °C. The compound `CCOC(=O)CC(C)C` returned a melting point of -99.3 to -99 °C. As to `N#CCc1cccc2ccccc12`, the melting point lay within 32.5 to 34 °C. Then `O=C(O)CCCc1c[nH]c2ccccc12`, with 123 to 124 °C; and `Clc1cncc(Cl)n1`, with 54 to 56.5 °C; and `O=C(O)COc1ccc(Cl)cc1`, with 159 to 164 °C. Next, `CCOS(=O)(=O)c1ccc(C)cc1`: 32 to 34.5 °C; `CC(C)(C)C1=CC(=O)C(=O)C(C(C)(C)C)=C1`: 114 to 115 °C. As for `Nc1cccnc1`, the melting point was 61 to 64.5 °C. Then `CCOc1ccccc1OCC`, with 43 to 44 °C. Take `O=C(c1ccccc1)c1ccc(-c2ccccc2)cc1`: the melting point lay in the range of 100 to 101 °C.

Take `O=C(O)c1ccc(Cl)c(Cl)c1`: the melting point is 207 to 208 °C. Take `Cc1ccc(Cl)cc1`: the melting point lay within 7 to 8 °C. Turning to `SCc1ccc(Cl)cc1`, the melting point fell in the range of 19 to 20 °C.

Take `c1ccc(OP(Oc2ccccc2)Oc2ccccc2)cc1`: the melting point is 23 to 25 °C. The compound `COc1ccc(Cl)cc1Cl` had a melting point of 26 to 28.5 °C. Take `COC(=O)C1C(OC(=O)c2ccccc2)CC2CCC1N2C` (centres undefined): the melting point is 93.5 to 98 °C. Compound `C=C` yielded a melting point of -169 °C.

Compound `CC(C)C(C)(C)C(C)C` came in with a melting point of -102 °C.

For orientation: melting point means the temperature of the solid-liquid transition.
